Results on 22 compounds are retold here after patent US10709709B2, “Substituted carbonucleoside derivatives useful as anticancer agents” (Pfizer Inc., priority 2016, dated 2020).

As usually defined, the IC50 is the concentration needed to halve the response being measured.

Test [1] deals with PRMT5/MEP50 protein complex (Homo sapiens (Human), UniProt O14744). The test is described as follows: PRMT5 biochemical assay (3H-SAM methylation of H4(1-21) peptide, filter plate scintillation). As to conditions: 10 nM PRMT5/MEP50 complex, 200 nM H4(1-21) peptide, 1 uM SAM, 25 minute incubation at room temperature. The essentials: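 Human PRMT5/MEP50 complex (10 nM) methylating H4(1-21) peptide (200 nM) with 3H/unlabelled SAM (1 uM final) in pH 8.5 Tris buffer, 25 min at room temperature. Stopped with TCA, 3H-peptide captured on filter plates and scintillation-counted. IC50 from 4-parameter fit.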
PRMT5/MEP50 protein complex, sequence (O14744 other isoform, or with tags, fused parts or gaps): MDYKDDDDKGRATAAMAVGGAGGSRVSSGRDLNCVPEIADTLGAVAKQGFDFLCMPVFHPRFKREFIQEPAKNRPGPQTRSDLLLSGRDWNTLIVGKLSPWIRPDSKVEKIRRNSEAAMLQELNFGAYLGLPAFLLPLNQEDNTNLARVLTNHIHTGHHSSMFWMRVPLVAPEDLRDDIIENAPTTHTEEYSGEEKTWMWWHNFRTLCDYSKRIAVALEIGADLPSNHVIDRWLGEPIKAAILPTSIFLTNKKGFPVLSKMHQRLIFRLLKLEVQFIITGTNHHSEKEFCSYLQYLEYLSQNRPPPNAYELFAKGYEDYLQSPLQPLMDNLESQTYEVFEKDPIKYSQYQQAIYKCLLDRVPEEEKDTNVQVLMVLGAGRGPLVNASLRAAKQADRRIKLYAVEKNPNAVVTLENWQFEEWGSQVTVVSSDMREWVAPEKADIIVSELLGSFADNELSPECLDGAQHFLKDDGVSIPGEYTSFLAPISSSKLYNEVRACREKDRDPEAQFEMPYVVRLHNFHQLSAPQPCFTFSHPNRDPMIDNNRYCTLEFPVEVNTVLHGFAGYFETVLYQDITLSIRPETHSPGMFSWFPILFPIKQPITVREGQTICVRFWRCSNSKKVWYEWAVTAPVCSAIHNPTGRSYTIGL
PRMT5/MEP50 protein complex, sequence (Q9BQA1 whole entry partner): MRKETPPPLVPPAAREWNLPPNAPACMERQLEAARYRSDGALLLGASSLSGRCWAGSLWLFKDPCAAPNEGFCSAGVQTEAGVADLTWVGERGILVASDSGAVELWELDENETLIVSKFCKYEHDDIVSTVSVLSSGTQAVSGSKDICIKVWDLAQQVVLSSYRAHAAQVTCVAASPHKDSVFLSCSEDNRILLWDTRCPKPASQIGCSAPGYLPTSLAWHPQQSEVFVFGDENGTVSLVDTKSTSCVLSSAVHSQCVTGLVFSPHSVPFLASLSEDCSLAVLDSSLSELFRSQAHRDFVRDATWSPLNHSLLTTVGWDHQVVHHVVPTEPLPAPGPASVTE

Test [2] concerns A549 lung adenocarcinoma cells. Description: A549 proliferation assay (Cell Titer Glo). In kind it is cell-based. The note with it: 7 days with compound, cell viability by Cell Titer Glo (ATP). How it is done: A549 lung adenocarcinoma cells (American Type Culture Collection) were maintained in DMEM growth media (Life Technologies) supplemented with 10% v/v heat inactivated fetal bovine serum (Sigma) and cultured at 37° C., 5% CO2. Exponentially growing A549 cells were plated in 96-well black tissue culture treated plates (Corning) at a density of […] in a volume of 100 μl culture media and allowed to adhere overnight at 37° C., 5% CO2. The following day, compound plates were prepared by making nine-point 3.3-fold dilutions in DMSO with a top concentration of 10 mM. Compounds were further diluted in culture media and 11 μl was added to the cells (final top assay concentration was 10 μM and DMSO was 0.2%). Cells were incubated with compound at 37° C., 5% CO2 for 7 days with media and compound replacement on day 4. Cell viability was assayed on Day 7 by adding 100 μl Cell Titer Glo (Promega) reagent to the plate to measure the amount of ATP present in the cells. Luminescence was read using the Envision 2104 Multilabel Reader (Perkin Elmer). The 50% inhibitory concentration (IC50) was determined using a 4-parameter fit model normalized to the DMSO control in dose response.

Structures are written as SMILES.

In the case of `Nc1ncnc2c1c(Cl)cn2[C@@H]1C[C@H](Oc2cc(F)c(F)c3c2CNCC3)[C@@H](O)[C@H]1O` [Example 128, (1S,2S,3R,5S)-3-(4-amino-5-chloro-7H-pyrrolo[2,3-d]pyrimidin-7-yl)-5-((5,6-difluoro-1,2,3,4-tetrahydroisoquinolin-8-yl)oxy)cyclopentane-1,2-diol], the IC50 worked out at 1 nM in test [1] and 597 nM in test [2] (Homo sapiens, A549, 168 h).
On to `Cc1ncnc2c1ccn2[C@@H]1C[C@H](Oc2ccc(I)c3c2CNCC3)[C@@H](O)[C@H]1O` [Example 98, (1S,2S,3S,5R)-3-((5-iodo-1,2,3,4-tetrahydroisoquinolin-8-yl)oxy)-5-(4-methyl-7H-pyrrolo[2,3-d]pyrimidin-7-yl)cyclopentane-1,2-diol], for which the IC50 is 11 nM in test [1] and 1490 nM in test [2] (Homo sapiens, A549, 168 h).
For `Nc1ncnc2c1c(F)cn2[C@@H]1C[C@H](Oc2ccc(F)c3c2CNCC3)[C@@H](O)[C@H]1O` [Example 100, (1S,2S,3R,5S)-3-(4-amino-5-fluoro-7H-pyrrolo[2,3-d]pyrimidin-7-yl)-5-((5-fluoro-1,2,3,4-tetrahydroisoquinolin-8-yl)oxy)cyclopentane-1,2-diol] the same measures were 1 nM and 185 nM.
On to `Cc1ncnc2c1ccn2[C@@H]1C[C@H](Oc2cc(F)c(F)c3c2CNCC3)[C@@H](O)[C@H]1O` [Example 92, (1S,2S,3S,5R)-3-((5,6-difluoro-1,2,3,4-tetrahydroisoquinolin-8-yl)oxy)-5-(4-methyl-7H-pyrrolo[2,3-d]pyrimidin-7-yl)cyclopentane-1,2-diol], for which the IC50 came out at 1 nM in test [1] and 312 nM in test [2] (Homo sapiens, A549, 168 h).
For the compound `Cc1ncnc2c1ccn2C1C[C@H](Oc2cccc3ccncc23)[C@@H](O)[C@H]1O` (stereo partly drawn) [Example 77, (1S,2S,3S,5R)-3-(isoquinolin-8-yloxy)-5-(4-methyl-7H-pyrrolo[2,3-d]pyrimidin-7-yl)cyclopentane-1,2-diol], the IC50 worked out at 65 nM in test [1] and 1120 nM in test [2] (Homo sapiens, A549, 168 h).
For `CCc1cc2c(c(O[C@H]3C[C@@H](n4cc(F)c5c(N)ncnc54)[C@H](O)[C@@H]3O)c1)CNCC2` [Example 106, (1S,2S,3R,5S)-3-(4-amino-5-fluoro-7H-pyrrolo[2,3-d]pyrimidin-7-yl)-5-((6-ethyl-1,2,3,4-tetrahydroisoquinolin-8-yl)oxy)cyclopentane-1,2-diol], the IC50 in test [1] is 2 nM; in test [2] (Homo sapiens, A549, 168 h) it was 3850 nM.
For `Cc1ncnc2c1ccn2[C@@H]1C[C@H](Oc2cccc3c2CNCC3)[C@@H](O)[C@H]1O` [Example 78, (1S,2S,3R,5S)-3-(4-methyl-7H-pyrrolo[2,3-d]pyrimidin-7-yl)-5-((1,2,3,4-tetrahydroisoquinolin-8-yl)oxy)cyclopentane-1,2-diol] the same measures were 1 nM and 1620 nM.
As for `CC1CNCc2c(O[C@H]3C[C@@H](n4cc(F)c5c(N)ncnc54)[C@H](O)[C@@H]3O)cc(C(F)F)c(F)c21` (stereo partly drawn) [Example 216, (1S,2S,3R,5S)-3-(4-amino-5-fluoro-7H-pyrrolo[2,3-d]pyrimidin-7-yl)-5-((6-(difluoromethyl)-5-fluoro-4-methyl-1,2,3,4-tetrahydroisoquinolin-8-yl)oxy)cyclopentane-1,2-diol], the 50% inhibitory concentration (IC50) came out at 1 nM in test [1] and 6 nM in test [2].
`Cc1ncnc2c1ccn2[C@@H]1C[C@H]([C@H](O)c2ccc(Cl)c(F)c2)[C@@H](O)[C@H]1O` [Example 160, (1S,2R,3R,5R)-3-((S)-(4-chloro-3-fluorophenyl)(hydroxy)methyl)-5-(4-methyl-7H-pyrrolo[2,3-d]pyrimidin-7-yl)cyclopentane-1,2-diol]: the IC50 in test [1] is 9 nM; in test [2] (Homo sapiens, A549, 168 h), 405 nM.
With `Cc1ncnc2c1ccn2[C@@H]1C[C@H]([C@](C)(O)c2ccc(F)cc2)[C@@H](O)[C@H]1O` [Example 19, (1S,2R,3S,5R)-3-[(1 S)-1-(4-fluorophenyl)-1-hydroxyethyl]-5-(4-methyl-7H-pyrrolo[2,3-d]pyrimidin-7-yl)cyclopentane-1,2-diol], the IC50 came to 64 nM in test [1] and 1070 nM in test [2] (Homo sapiens, A549, 168 h).
Take `Cc1ncnc2c1c(F)cn2[C@@H]1C[C@H](Oc2cccc3c2CNCC3)[C@@H](O)[C@H]1O` [Example 117, (1S,2S,3R,5S)-3-(5-fluoro-4-methyl-7H-pyrrolo[2,3-d]pyrimidin-7-yl)-5-((1,2,3,4-tetrahydroisoquinolin-8-yl)oxy)cyclopentane-1,2-diol]: the IC50 in test [1] came out at 5 nM; in test [2] (Homo sapiens, A549, 168 h), 7140 nM.
Take `Cc1nc(N)nc2c1ccn2[C@@H]1C[C@H]([C@H](O)c2ccc(F)c(F)c2)[C@@H](O)[C@H]1O` [Example 48, (1R,2S,3R,5R)-3-(2-amino-4-methyl-7H-pyrrolo[2,3-d]pyrimidin-7-yl)-5-[(S)-(3,4-difluorophenyl)(hydroxy)methyl]cyclopentane-1,2-diol]: the IC50 in test [1] is 5 nM; in test [2] (Homo sapiens, A549, 168 h), 192 nM.
For `Cc1ncnc2c1ccn2[C@@H]1C[C@H](Oc2cc(Cl)c(F)cc2[C@@H](C)N)[C@@H](O)[C@H]1O` [Example 140, (1S,2S,3S,5R)-3-(2-((R)-1-aminoethyl)-5-chloro-4-fluorophenoxy)-5-(4-methyl-7H-pyrrolo[2,3-d]pyrimidin-7-yl)cyclopentane-1,2-diol] the same measures were 17 nM and 2380 nM.
The corresponding values for `Nc1ncnc2c1c(F)cn2[C@@H]1C[C@H](Oc2cccc3c2CNCC3)[C@@H](O)[C@H]1O` [Example 99, (1S,2S,3R,5S)-3-(4-amino-5-fluoro-7H-pyrrolo[2,3-d]pyrimidin-7-yl)-5-((1,2,3,4-tetrahydroisoquinolin-8-yl)oxy)cyclopentane-1,2-diol] are 2 nM and 728 nM.
On to `Cc1ncc2c(F)cn([C@@H]3C[C@H](Oc4cc(F)c(F)c5c4CNCC5)[C@@H](O)[C@H]3O)c2n1` [Example 178, (1S,2S,3S,5R)-3-((5,6-difluoro-1,2,3,4-tetrahydroisoquinolin-8-yl)oxy)-5-(5-fluoro-2-methyl-7H-pyrrolo[2,3-d]pyrimidin-7-yl)cyclopentane-1,2-diol], for which the IC50 in test [1] was 2 nM; in test [2] (Homo sapiens, A549, 168 h), 4060 nM.
The corresponding values for `Cc1ncnc2c1ccn2[C@@H]1C[C@H](Oc2cc(Cl)c(F)cc2[C@H](C)N)[C@@H](O)[C@H]1O` [Example 139, (1S,2S,3S,5R)-3-(2-((S)-1-aminoethyl)-5-chloro-4-fluorophenoxy)-5-(4-methyl-7H-pyrrolo[2,3-d]pyrimidin-7-yl)cyclopentane-1,2-diol] are 1 nM and 637 nM.
The corresponding values for `Cc1ncnc2c1ccn2[C@@H]1C[C@H](Oc2cc(Br)cc3c2CNCC3)[C@@H](O)[C@H]1O` [Example 89, (1S,2S,3S,5R)-3-((6-bromo-1,2,3,4-tetrahydroisoquinolin-8-yl)oxy)-5-(4-methyl-7H-pyrrolo[2,3-d]pyrimidin-7-yl)cyclopentane-1,2-diol] are 1 nM and 195 nM.
Regarding `Cc1ncnc2c1ccn2[C@@H]1C[C@H](Oc2cc(-c3cnoc3)cc3c2CNCC3)[C@@H](O)[C@H]1O` [Example 197, (1S,2S,3S,5R)-3-((6-(isoxazol-4-yl)-1,2,3,4-tetrahydroisoquinolin-8-yl)oxy)-5-(4-methyl-7H-pyrrolo[2,3-d]pyrimidin-7-yl)cyclopentane-1,2-diol], the IC50 was 1 nM in test [1] and 3460 nM in test [2] (Homo sapiens, A549, 168 h).
`COc1nc(O[C@H]2C[C@@H](n3ccc4c(C)ncnc43)[C@H](O)[C@@H]2O)c2c(c1F)CCNC2` [Example 191, (1S,2S,3S,5R)-3-((4-fluoro-3-methoxy-5,6,7,8-tetrahydro-2,7-naphthyridin-1-yl)oxy)-5-(4-methyl-7H-pyrrolo[2,3-d]pyrimidin-7-yl)cyclopentane-1,2-diol]: the IC50 in test [1] worked out at 1 nM; in test [2] (Homo sapiens, A549, 168 h) it was 7020 nM.
`Nc1ncnc2c1c(F)cn2[C@@H]1C[C@H]([C@H](O)c2ccc(F)cc2)[C@@H](O)[C@H]1O` [Example 25, (1R,2S,3R,5R)-3-(4-amino-5-fluoro-7H-pyrrolo[2,3-d]pyrimidin-7-yl)-5-[(S)-(4-fluorophenyl)(hydroxy)methyl]cyclopentane-1,2-diol]: the IC50 was determined as 56 nM in test [1] and 1670 nM in test [2] (Homo sapiens, A549, 168 h).
The corresponding values for `Cc1cc2c(c(O[C@H]3C[C@@H](n4ccc5c(C)ncnc54)[C@H](O)[C@@H]3O)n1)CNCC2` [Example 181, (1S,2S,3S,5R)-3-((3-methyl-5,6,7,8-tetrahydro-2,7-naphthyridin-1-yl)oxy)-5-(4-methyl-7H-pyrrolo[2,3-d]pyrimidin-7-yl)cyclopentane-1,2-diol] are 1 nM and 1140 nM.
For the compound `Cc1ncnc2c1ccn2[C@@H]1C[C@H](Oc2ccc(F)cc2CN)[C@@H](O)[C@H]1O` [Example 66, (1S,2S,3S,5R)-3-(2-(aminomethyl)-4-fluorophenoxy)-5-(4-methyl-7H-pyrrolo[2,3-d]pyrimidin-7-yl)cyclopentane-1,2-diol], the IC50 came out at 4 nM in test [1] and 6810 nM in test [2] (Homo sapiens, A549, 168 h).
